# Measurements taken from ChEMBL document CHEMBL3509421, “FDA drug approval package for diclofenac acid (NDA 22-202 CP, Ref ID: 3374276)”.
# Key:
# [1] = Mean AUC(0-t) of diclofenac following single oral dosing of 50 mg Cataflam in healthy human; type: ADME, organism-based; parameters: dietary status Fasting, dose 50 mg, dosed compound id 2.46815e+06, dosed compound name Diclofenac potassium, gender Mixed, regimen Single, route oral, study doses 50 mg; settings: both, plasma
# [2] = Mean AUC(0-infinity) of diclofenac following single oral dosing of 50 mg diclofenac potassium soft gelatin capsule in healthy human; type: ADME, organism-based; parameters: time infinity, dietary status Fasting, dose 50 mg, dosed compound id 2.46815e+06, dosed compound name Diclofenac potassium, gender Mixed, regimen Single, route oral, study doses 25/50 mg; settings: both, plasma, read-out: AUC (0-infinity)
# [3] = Mean AUC(0-infinity) of diclofenac following single oral dosing of 25 mg diclofenac potassium soft gelatin capsule in healthy human; type: ADME, organism-based; parameters: time infinity, dietary status Fasting, dose 25 mg, dosed compound id 2.46815e+06, dosed compound name Diclofenac potassium, gender Mixed, regimen Single, route oral, study doses 25/50 mg; settings: both, plasma, read-out: AUC (0-infinity)
# [4] = Mean AUC(0-infinity) of diclofenac following single oral dosing of 50 mg Cataflam in healthy human; type: ADME, organism-based; parameters: time infinity, dietary status Fasting, dose 50 mg, dosed compound id 2.46815e+06, dosed compound name Diclofenac potassium, gender Mixed, regimen Single, route oral, study doses 50 mg; settings: both, plasma, read-out: AUC (0-infinity)
# [5] = Mean Tmax of diclofenac following single oral dosing of 50 mg diclofenac potassium soft gelatin capsule in healthy human; type: ADME, organism-based; parameters: dietary status Fasting, dose 50 mg, dosed compound id 2.46815e+06, dosed compound name Diclofenac potassium, gender Mixed, regimen Single, route oral, study doses 25/50 mg; settings: both, plasma
# [6] = Mean Tmax of diclofenac following single oral dosing of 25 mg diclofenac potassium soft gelatin capsule in healthy human; type: ADME, organism-based; parameters: dietary status Fasting, dose 25 mg, dosed compound id 2.46815e+06, dosed compound name Diclofenac potassium, gender Mixed, regimen Single, route oral, study doses 25/50 mg; settings: both, plasma
# [7] = Geometric mean for AUC (0-t) of diclofenac following single oral dosing of 50 mg Cataflam tablet in healthy human; type: ADME, organism-based; parameters: dietary status Fasting, dose 50 mg, dosed compound id 2.46815e+06, dosed compound name Diclofenac potassium, gender Mixed, regimen Single, route oral; settings: both, plasma
# [8] = Mean Tmax of diclofenac following single oral dosing of 50 mg Cataflam in healthy human; type: ADME, organism-based; parameters: dietary status Fasting, dose 50 mg, dosed compound id 2.46815e+06, dosed compound name Diclofenac potassium, gender Mixed, regimen Single, route oral, study doses 50 mg; settings: both, plasma
# [9] = (§1) Mean AUC(0-infinity) of diclofenac potassium following oral dosing of PRO-513 50 mg sachet in healthy human; type: ADME, organism-based; parameters: time infinity, dietary status Fasting, dose 50 mg, dosed compound id 2.46815e+06, dosed compound name Diclofenac potassium, gender Mixed, regimen Single, route oral, study doses 50 mg; settings: both, plasma, read-out: AUC(0-infinity)
# [10] = (§2) Mean AUC(0-t) of diclofenac potassium following oral dosing of PRO-513 50 mg sachet in healthy human; type: ADME, organism-based; parameters: dietary status Fasting, dose 50 mg, dosed compound id 2.46815e+06, dosed compound name Diclofenac potassium, gender Mixed, regimen Single, route oral, study doses 50 mg; settings: both, plasma
# [11] = (§3) Mean median Tmax value of diclofenac potassium following oral dosing of PRO-513 50 mg sachet in healthy human; type: ADME, organism-based; parameters: dietary status Fasting, dose 50 mg, dosed compound id 2.46815e+06, dosed compound name Diclofenac potassium, gender Mixed, regimen Single, route oral, study doses 50 mg; settings: both, plasma, read-out: Median Tmax
# [12] = (§4) Mean minimum Tmax value of diclofenac potassium following oral dosing of PRO-513 50 mg sachet in healthy human; type: ADME, organism-based, Plasma; parameters: dietary status Fasting, dose 50 mg, dosed compound id 2.46815e+06, dosed compound name Diclofenac potassium, gender Mixed, regimen Single, route oral, study doses 50 mg; settings: in vivo
# [13] = (§5) Mean maximum Tmax value of diclofenac potassium following oral dosing of PRO-513 50 mg sachet in healthy human; type: ADME, organism-based; parameters: dietary status Fasting, dose 50 mg, dosed compound id 2.46815e+06, dosed compound name Diclofenac potassium, gender Mixed, regimen Single, route oral, study doses 50 mg; settings: both, plasma, read-out: Maximum Tmax
# [14] = (§6) Mean Kel of diclofenac potassium following oral dosing of PRO-513 50 mg sachet in healthy human; type: ADME, organism-based; parameters: dietary status Fasting, dose 50 mg, dosed compound id 2.46815e+06, dosed compound name Diclofenac potassium, gender Mixed, regimen Single, route oral, study doses 50 mg; settings: both, plasma
# [15] = (§7) Mean AUC(0-infinity) of diclofenac potassium following oral dosing of Cataflam 50 mf tablet in healthy human; type: ADME, organism-based; parameters: time infinity, dietary status Fasting, dose 50 mg, dosed compound id 2.46815e+06, dosed compound name Diclofenac potassium, gender Mixed, regimen Single, route oral, study doses 50 mg; settings: both, plasma, 50 mg, read-out: AUC(0-infinity)
# [16] = (§8) Mean AUC(0-t) of diclofenac potassium following oral dosing of Cataflam 50 mf tablet in healthy human; type: ADME, organism-based; parameters: dietary status Fasting, dose 50 mg, dosed compound id 2.46815e+06, dosed compound name Diclofenac potassium, gender Mixed, regimen Single, route oral, study doses 50 mg; settings: both, plasma, 50 mg
# [17] = Mean Cmax of diclofenac potassium following oral dosing of Cataflam 50 mf tablet in healthy human; type: ADME, organism-based; parameters: dietary status Fasting, dose 50 mg, dosed compound id 2.46815e+06, dosed compound name Diclofenac potassium, gender Mixed, regimen Single, route oral, study doses 50 mg; settings: both, plasma, 50 mg
# [18] = Mean median Tmax value of diclofenac potassium following oral dosing of Cataflam 50 mf tablet in healthy human; type: ADME, organism-based; parameters: dietary status Fasting, dose 50 mg, dosed compound id 2.46815e+06, dosed compound name Diclofenac potassium, gender Mixed, regimen Single, route oral, study doses 50 mg; settings: both, plasma, 50 mg, read-out: Median Tmax
# [19] = Mean minimum Tmax value of diclofenac potassium following oral dosing of Cataflam 50 mf tablet in healthy human; type: ADME, organism-based; parameters: dietary status Fasting, dose 50 mg, dosed compound id 2.46815e+06, dosed compound name Diclofenac potassium, gender Mixed, regimen Single, route oral, study doses 50 mg; settings: both, plasma, 50 mg, read-out: Minimum Tmax
# [20] = Mean maximum Tmax value of diclofenac potassium following oral dosing of Cataflam 50 mf tablet in healthy human; type: ADME, organism-based; parameters: dietary status Fasting, dose 50 mg, dosed compound id 2.46815e+06, dosed compound name Diclofenac potassium, gender Mixed, regimen Single, route oral, study doses 50 mg; settings: both, plasma, 50 mg, read-out: Maximum Tmax
# [21] = Mean Kel of diclofenac potassium following oral dosing of Cataflam 50 mf tablet in healthy human; type: ADME, organism-based; parameters: dietary status Fasting, dose 50 mg, dosed compound id 2.46815e+06, dosed compound name Diclofenac potassium, gender Mixed, regimen Single, route oral, study doses 50 mg; settings: both, plasma, 50 mg
# [22] = Mean terminal elimination half-life of diclofenac potassium following oral dosing of Cataflam 50 mf tablet in healthy human; settings: both, plasma, 50 mg
# [23] = as §1; type: ADME, organism-based; parameters: time infinity, dietary status Fed, dose 50 mg, dosed compound id 2.46815e+06, dosed compound name Diclofenac potassium, gender Mixed, regimen Single, route oral, study doses 50 mg; settings: both, plasma, read-out: AUC(0-infinity)
# [24] = as §2; type: ADME, organism-based; parameters: dietary status Fed, dose 50 mg, dosed compound id 2.46815e+06, dosed compound name Diclofenac potassium, gender Mixed, regimen Single, route oral, study doses 50 mg; settings: both, plasma
# [25] = Mean Cmax of diclofenac potassium following oral dosing of PRO-513 50 mg sachet in healthy human; type: ADME, organism-based; parameters: dietary status Fed, dose 50 mg, dosed compound id 2.46815e+06, dosed compound name Diclofenac potassium, gender Mixed, regimen Single, route oral, study doses 50 mg; settings: both, plasma
# [26] = as §3; type: ADME, organism-based; parameters: dietary status Fed, dose 50 mg, dosed compound id 2.46815e+06, dosed compound name Diclofenac potassium, gender Mixed, regimen Single, route oral, study doses 50 mg; settings: both, plasma, read-out: Median Tmax
# [27] = as §4; type: ADME, organism-based, Plasma; parameters: dietary status Fed, dose 50 mg, dosed compound id 2.46815e+06, dosed compound name Diclofenac potassium, gender Mixed, regimen Single, route oral, study doses 50 mg; settings: in vivo
# [28] = as §5; type: ADME, organism-based; parameters: dietary status Fed, dose 50 mg, dosed compound id 2.46815e+06, dosed compound name Diclofenac potassium, gender Mixed, regimen Single, route oral, study doses 50 mg; settings: both, plasma, read-out: Maximum Tmax
# [29] = as §6; type: ADME, organism-based; parameters: dietary status Fed, dose 50 mg, dosed compound id 2.46815e+06, dosed compound name Diclofenac potassium, gender Mixed, regimen Single, route oral, study doses 50 mg; settings: both, plasma
# [30] = as §7; type: ADME, organism-based; parameters: dietary status Fed, dose 50 mg, dosed compound id 2.46815e+06, dosed compound name Diclofenac potassium, gender Mixed, regimen Single, route oral, study doses 50 mg, time infinity; settings: both, plasma, 50 mg, read-out: AUC(0-infinity)
# [31] = as §8; type: ADME, organism-based; parameters: dietary status Fed, dose 50 mg, dosed compound id 2.46815e+06, dosed compound name Diclofenac potassium, gender Mixed, regimen Single, route oral, study doses 50 mg; settings: both, plasma, 50 mg
smiles,measurement,setting,value
O=C(O)Cc1ccccc1Nc1c(Cl)cccc1Cl [DICLOFENAC],AUC(0-t),[1],1130 ng·h/mL
same,AUC(0-inf),[2],1230 ng·h/mL
same,AUC(0-inf),[3],603 ng·h/mL
same,AUC(0-inf),[4],1140 ng·h/mL
same,Tmax,[5],28.8 min
same,Tmax,[6],27 min
same,AUC(0-t),[7],1290 ng·h/mL
same,Tmax,[8],55.8 min
same,AUC(0-inf),[9],1250 ng·h/mL
same,AUC(0-t),[10],1240 ng·h/mL
same,Tmax,[11],15 min
same,Minimum Tmax,[12],10.2 min
same,Tmax,[13],40.2 min
same,k el,[14],0.000156 s⁻¹
same,AUC(0-inf),[15],1100 ng·h/mL
same,AUC(0-t),[16],1080 ng·h/mL
same,Cmax,[17],1160 ng/mL
same,Tmax,[18],30 min
same,Tmax,[19],15 min
same,Tmax,[20],240 min
same,k el,[21],0.000164 s⁻¹
same,half-life,[22],77.4 min
same,AUC(0-inf),[23],1080 ng·h/mL
same,AUC(0-t),[24],1050 ng·h/mL
same,Cmax,[25],506 ng/mL
same,Tmax,[26],10.2 min
same,Minimum Tmax,[27],4.8 min
same,Tmax,[28],240 min
same,k el,[29],0.000108 s⁻¹
same,AUC(0-inf),[30],1070 ng·h/mL
same,AUC(0-t),[31],1060 ng·h/mL
